Structures can show the parent of a compound that is named as a salt.
These compounds were tested against T1, human S1P1 receptor (Homo sapiens, UniProt P21453) (assay: S1P1 GTPγS binding assay (and alternative method)). Settings: in one of the above S1P1 GTPγS binding assays (first or alternative method, RH7777 membranes).
T1 construct: expressed in transfected cells; membranes
Format: biochemical
Method: For membrane preparations all steps were performed at 4° C. Rat hepatoma cells stably expressing the human S1P1 receptor or Rat Basophilic Leukaemia cells (RBL) stably expressing human S1P3 receptor were grown to 80% confluency before being harvested into 10 ml Phospho-Buffered Saline (PBS) and centrifuged at 1200 rpm […]. After removal of the supernatant, the pellet was re-suspended and cells were homogenised within a glass Waring blender for 2 bursts of 15 secs in 200 mls of buffer (50 mM HEPES, 1 mM leupeptin, 25 μg/ml bacitracin, 1 mM EDTA, 1 mM PMSF, 2 μM pepstatin A). The blender was plunged into ice for 5 mins after the first burst and 10-40 mins after the final burst to allow foam to dissipate. The material was then spun at 500 g for 20 mins and the supernatant spun for 36 mins at 48,000 g. The pellet was resuspended in the same buffer as above but without PMSF and pepstatin A. The material was then forced through a 0.6 mm needle, made up to the required volume, (usually ×4 the volume of the original cell pellet), aliquoted and stored frozen at −80° C. Human S1P1 rat hepatoma membranes (1.5 μg/well) were adhered to a wheatgerm agglutinin (WGA)-coated scintillation proximity assay (SPA) beads (0.125 mg/well) in assay buffer (HEPES 20 mM, MgCl2 10 mM, NaCl 100 mM and pH adjusted to 7.4 using KOH 5M, GDP 10 μM FAC (final assay concentration) and saponin 90 μg/ml FAC was also added). After 30 minutes pre-coupling on ice the bead and membrane suspension was dispensed into a white Greiner polypropylene LV384-well plate (5 μl/well), containing 0.1 μl of the compound. 5 μl/well [^35S]-GTPγS (0.5 nM final radioligand conc) made up in assay buffer was then added to agonist plates. The final assay cocktail […] was then centrifuged at 1000 rpm for 5 minutes then read immediately on a Viewlux reader. All test compounds were dissolved in DMSO at a concentration of 10 mM and were prepared in 100% DMSO using a 1 in 4 dilution step to provide 11 point dose response curves. The dilutions were transferred to the assay plates ensuring that the DMSO concentration was constant across the plate for all assays. All data was normalized to the mean of 16 high and 16 low control wells on each plate. A four parameter curve fit was then applied. S1P1 expressing RH7777 membranes (1.5 μg/well) […] were homogenised by passing through a 23G needle. These were then adhered to WGA-coated SPA beads (0.125 mg/well) in assay buffer (HEPES 20 mM, MgCl2 10 mM, NaCl 100 mM and pH adjusted to 7.4 using KOH 5M). GDP 10 μM FAC and saponin 90 μg/ml FAC were also added After 30 minutes precoupling on ice, the bead and membrane suspension was dispensed into white Greiner polypropylene LV 384-well plates (5 μl/well), containing 0.1 μl of compound. 5 μl/well [^35S]-GTPγS (0.5 nM for S1P1 or 0.3 nM for S1P3 final radioligand concentration) made in assay buffer was then added to the plates. The final assay cocktail (10.1 μl) was then sealed, spun on a centrifuge, then read immediately on a Viewlux instrument.

T1 sequence (P21453 whole entry): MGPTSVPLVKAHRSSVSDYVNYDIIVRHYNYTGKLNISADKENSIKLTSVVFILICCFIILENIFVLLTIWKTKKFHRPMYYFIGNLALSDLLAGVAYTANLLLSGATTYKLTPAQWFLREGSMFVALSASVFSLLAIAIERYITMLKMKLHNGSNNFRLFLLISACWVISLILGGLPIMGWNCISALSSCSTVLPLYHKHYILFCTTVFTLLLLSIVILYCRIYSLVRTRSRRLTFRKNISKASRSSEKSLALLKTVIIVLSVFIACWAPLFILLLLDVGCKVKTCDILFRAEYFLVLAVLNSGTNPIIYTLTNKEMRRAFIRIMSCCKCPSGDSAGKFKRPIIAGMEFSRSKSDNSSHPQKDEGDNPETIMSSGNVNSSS

EC50 | SMILES
≤ 10 nM | CC(C)Oc1ccc(-c2nc(-c3cccc4c(CCC(=O)O)nccc34)no2)cc1Cl [Example 1, 3-[5-(5-{3-Chloro-4-[(1-methylethyl)oxy]phenyl}-1,2,4-oxadiazol-3-yl)-1-isoquinolinyl]propanoic acid lithium salt]
≤ 10 nM | CC(C)Oc1ccc(-c2nc(-c3cccc4c(N5CCC(C(=O)O)CC5)nccc34)no2)cc1Cl [Example 4, 1-[5-(5-{3-Chloro-4-[(1-methylethyl)oxy]phenyl}-1,2,4-oxadiazol-3-yl)-1-isoquinolinyl]-4-piperidinecarboxylic acid lithium salt]
≤ 10 nM | O=C(O)CCc1nccc2c(-c3noc(-c4ccc(OCC(F)(F)F)c(Cl)c4)n3)cccc12 [Example 24, 3-[5-(5-{3-Chloro-4-[(2,2,2-trifluoroethyl)oxy]phenyl}-1,2,4-oxadiazol-3-yl)-1-isoquinolinyl]propanoic acid hydrochloride]
≤ 10 nM | CC(C)Oc1ccc(-c2nc(-c3cccc4c(CCC(=O)O)nccc34)no2)cc1C#N [Example 26, 3-[5-(5-{3-Cyano-4-[(1-methylethyl)oxy]phenyl}-1,2,4-oxadiazol-3-yl)-1-isoquinolinyl]propanoic acid hydrochloride]
≤ 10 nM | CC(C)Oc1ncc(-c2nc(-c3cccc4c(CCC(=O)O)nccc34)no2)cc1Cl [Example 27, 3-[5-(5-{5-Chloro-6-[(1-methylethyl)oxy]-3-pyridinyl}-1,2,4-oxadiazol-3-yl)-1-isoquinolinyl]propanoic acid]
≤ 10 nM | CC(C)Oc1ncc(-c2nc(-c3cccc4c(CCCC(=O)O)nccc34)no2)cc1Cl [Example 30, 4-[5-(5-{5-Chloro-6-[(1-methylethyl)oxy]-3-pyridinyl}-1,2,4-oxadiazol-3-yl)-1-isoquinolinyl]butanoic acid]

The compounds below were run against T2, human S1P3 receptor (Homo sapiens, UniProt Q99500) (assay: S1P3 GTPγS binding assay (and alternative method)). Settings: in one of the above S1P3 GTPγS binding assays (first or alternative method, RBL membranes).
T2 construct: expressed in transfected cells; membranes
T2 sequence (Q99500 whole entry): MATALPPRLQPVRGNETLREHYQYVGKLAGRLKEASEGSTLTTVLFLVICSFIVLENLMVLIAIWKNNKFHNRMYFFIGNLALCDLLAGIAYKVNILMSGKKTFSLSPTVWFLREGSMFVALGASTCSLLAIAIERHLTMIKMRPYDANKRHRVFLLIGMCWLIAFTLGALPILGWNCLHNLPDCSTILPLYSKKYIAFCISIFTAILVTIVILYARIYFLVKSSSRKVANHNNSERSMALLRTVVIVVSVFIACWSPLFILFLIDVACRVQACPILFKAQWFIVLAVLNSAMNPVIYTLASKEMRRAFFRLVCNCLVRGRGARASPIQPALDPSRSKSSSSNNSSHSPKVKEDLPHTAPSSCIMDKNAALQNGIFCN
Format: biochemical
Method: For membrane preparations all steps were performed at 4° C. Rat hepatoma cells stably expressing the human S1P1 receptor or Rat Basophilic Leukaemia cells (RBL) stably expressing human S1P3 receptor were grown to 80% confluency before being harvested into 10 ml Phospho-Buffered Saline (PBS) and centrifuged at 1200 rpm […]. After removal of the supernatant, the pellet was re-suspended and cells were homogenised within a glass Waring blender for 2 bursts of 15 secs in 200 mls of buffer (50 mM HEPES, 1 mM leupeptin, 25 μg/ml bacitracin, 1 mM EDTA, 1 mM PMSF, 2 μM pepstatin A). The blender was plunged into ice for 5 mins after the first burst and 10-40 mins after the final burst to allow foam to dissipate. The material was then spun at 500 g for 20 mins and the supernatant spun for 36 mins at 48,000 g. The pellet was resuspended in the same buffer as above but without PMSF and pepstatin A. The material was then forced through a 0.6 mm needle, made up to the required volume, (usually ×4 the volume of the original cell pellet), aliquoted and stored frozen at −80° C. […] The final assay cocktail (10.1 μl) was centrifuged at 1000 rpm for 5 minutes then read immediately on a Viewlux reader. […] The final assay cocktail (10.1 μl) was then sealed, spun on a centrifuge, then read immediately on a Viewlux instrument.

EC50 | SMILES
3160 nM | CC(C)Oc1ccc(-c2nc(-c3cccc4c(N5CCC(C(=O)O)CC5)nccc34)no2)cc1Cl [Example 4, 1-[5-(5-{3-Chloro-4-[(1-methylethyl)oxy]phenyl}-1,2,4-oxadiazol-3-yl)-1-isoquinolinyl]-4-piperidinecarboxylic acid lithium salt]
